# How the values were obtained:
# [1] = tested on: Human Monocytic Leukemia MV4-11; assay: Cell proliferation experiment (Alarm blue, 72 h, EC50); type: cell-based; details: Homo sapiens, MV4-11, MV4;11 cells
# Method in brief: (§1)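 Growth inhibition over 72 h. Cells were cultured in standard media and passaged at least twice before plating, then treated with a 5-fold compound gradient. EC50 came from Alamar blue fluorescence.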
# [2] = tested on: Human cervical adenocarcinoma cells Hela; assay: as above; type: cell-based; details: Homo sapiens
# Method in brief: as §1
EC50 [1],EC50 [2],SMILES
100 to 1000 nM,> 1000 nM,CC[C@@H]1c2nncn2-c2cnc(Nc3ccc(C(=O)NCCCOCC(=O)N[C@H](C(=O)N4C[C@H](O)C[C@H]4C(=O)NCc4ccc(-c5scnc5C)cc4)C(C)(C)C)cc3OC)nc2N1C1CCCC1 [UB-180541]
100 to 1000 nM,> 1000 nM,CC[C@@H]1c2c(C#N)ncn2-c2cnc(Nc3ccc(C(=O)NCCCOCC(=O)N[C@H](C(=O)N4C[C@H](O)C[C@H]4C(=O)NCc4ccc(-c5scnc5C)cc4)C(C)(C)C)cc3OC)nc2N1C1CCCC1 [UB-180542]
10 to 100 nM,> 1000 nM,CC[C@@H]1c2c(C#N)ncn2-c2cnc(Nc3ccc(C(=O)NCCCC(=O)N[C@H](C(=O)N4C[C@H](O)C[C@H]4C(=O)NCc4ccc(-c5scnc5C)cc4)C(C)(C)C)cc3OC)nc2N1C1CCCC1 [UB-180543]
10 to 100 nM,> 1000 nM,CC[C@@H]1c2c(C#N)ncn2-c2cnc(Nc3ccc(C(=O)NCCOCC(=O)N[C@H](C(=O)N4C[C@H](O)C[C@H]4C(=O)NCc4ccc(-c5scnc5C)cc4)C(C)(C)C)cc3OC)nc2N1C1CCCC1 [UB-180544]
100 to 1000 nM,> 1000 nM,CC[C@@H]1c2c(C#N)ncn2-c2cnc(Nc3ccc(C(=O)NCCOCCOCCOCC(=O)Nc4cccc5c4CN(C4CCC(=O)NC4=O)C5=O)cc3OC)nc2N1C1CCCC1 (some centres unmarked) [UB-180545]
> 1000 nM,> 1000 nM,CC[C@@H]1c2nncn2-c2cnc(Nc3ccc(C(=O)NCCOCCOCCOCC(=O)Nc4cccc5c4CN(C4CCC(=O)NC4=O)C5=O)cc3OC)nc2N1C1CCCC1 (some centres unmarked) [UB-180546]
> 1000 nM,> 1000 nM,CC[C@@H]1c2nncn2-c2cnc(Nc3ccc(C(=O)NCCOCCOCCC(=O)Nc4cccc5c4CN(C4CCC(=O)NC4=O)C5=O)cc3OC)nc2N1C1CCCC1 (some centres unmarked) [UB-180547]
> 1000 nM,> 1000 nM,CC[C@@H]1c2c(C#N)ncn2-c2cnc(Nc3ccc(C(=O)NCCOCCOCCOCCC(=O)Nc4cccc5c4CN(C4CCC(=O)NC4=O)C5=O)cc3OC)nc2N1C1CCCC1 (some centres unmarked) [UB-180548]
> 1000 nM,> 1000 nM,CC[C@@H]1c2nncn2-c2cnc(Nc3ccc(C(=O)NCCOCCOCCOCCC(=O)Nc4cccc5c4CN(C4CCC(=O)NC4=O)C5=O)cc3OC)nc2N1C1CCCC1 (some centres unmarked) [UB-180549]
> 1000 nM,> 1000 nM,CC[C@@H]1c2nncn2-c2cnc(Nc3ccc(C(=O)NCCOCCOCCC(=O)N[C@H](C(=O)N4C[C@H](O)C[C@H]4C(=O)NCc4ccc(-c5scnc5C)cc4)C(C)(C)C)cc3OC)nc2N1C1CCCC1 [UB-180550]
> 1000 nM,> 1000 nM,CC[C@@H]1c2c(C#N)ncn2-c2cnc(Nc3ccc(C(=O)NCCOCCOCCOCCOCCC(=O)Nc4cccc5c4CN(C4CCC(=O)NC4=O)C5=O)cc3OC)nc2N1C1CCCC1 (some centres unmarked) [UB-180551]
100 to 1000 nM,> 1000 nM,CC[C@@H]1c2c(C#N)ncn2-c2cnc(Nc3ccc(C(=O)NCCOCCOCCOCCOCCC(=O)N[C@H](C(=O)N4C[C@H](O)C[C@H]4C(=O)NCc4ccc(-c5scnc5C)cc4)C(C)(C)C)cc3OC)nc2N1C1CCCC1 [UB-180552]
100 to 1000 nM,> 1000 nM,CC[C@@H]1c2nncn2-c2cnc(Nc3ccc(C(=O)NCCOCCOCCOCCOCCC(=O)N[C@H](C(=O)N4C[C@H](O)C[C@H]4C(=O)NCc4ccc(-c5scnc5C)cc4)C(C)(C)C)cc3OC)nc2N1C1CCCC1 [UB-180553]
10 to 100 nM,> 1000 nM,CC[C@@H]1c2nncn2-c2cnc(Nc3ccc(C(=O)NCCCCOCC(=O)N[C@H](C(=O)N4C[C@H](O)C[C@H]4C(=O)NCc4ccc(-c5scnc5C)cc4)C(C)(C)C)cc3OC)nc2N1C1CCCC1 [UB-180555]
> 1000 nM,> 1000 nM,CC[C@@H]1c2nncn2-c2cnc(Nc3ccc(C(=O)NCCOCCOCC(=O)Nc4cccc5c4CN(C4CCC(=O)NC4=O)C5=O)cc3OC)nc2N1C1CCCC1 (some centres unmarked) [UB-180556]
100 to 1000 nM,> 1000 nM,CC[C@@H]1c2c(C#N)ncn2-c2cnc(Nc3ccc(C(=O)NCCOCCOCC(=O)Nc4cccc5c4CN(C4CCC(=O)NC4=O)C5=O)cc3OC)nc2N1C1CCCC1 (some centres unmarked) [UB-180557]

# From patent US20210369853A1, “TARGETED PROTEASE DEGRADATION PLATFORM” (EUBULUS BIOTHERAPEUTICS INC., priority 2018, published 2021)
